According to PMC2865816, “Synthesis and Antiviral Studies of Novel N-Sulphonamidomethyl piperazinyl Fluoroquinolones” (Indian Journal of Pharmaceutical Sciences, 2009):
Values after ≈ are worked out from the molar mass of the structure shown. Read-outs that look alike come from different tables or passages of the source.

Legend:
[1] = system: influenza A (H5N1); test: microbe, parasite or virus in culture; type: cell-based; conditions: for EC50: Influenza A virus, H5N1, MDCK, read-out: EC50, 50% effective (virus-inhibitory) concentration; for Selectivity Index (CC50 divided by EC50): strain A(H5N1), MDCK cells
[2] = system: influenza A (H3N2); test: microbe, parasite or virus in culture; type: cell-based; conditions: for EC50: Influenza A virus, H3N2, MDCK, read-out: EC50, 50% effective (virus-inhibitory) concentration; for Selectivity Index (CC50 divided by EC50): strain A(H3N2), MDCK cells
[3] = system: influenza B; test: microbe, parasite or virus in culture; type: cell-based; conditions: strain B, MDCK cells; for EC50: Influenza B virus, CPE inhibition, neutral red, read-out: EC50, 50% effective (virus-inhibitory) concentration
[4] = Cytotoxicity against mock-infected MT-4 cells, MTT; type: cell-based; conditions: human; mock-infected MT-4 cells, MTT; read-out: CC50, concentration required to reduce the viability of mock-infected MT-4 cells by 50%
Experimental: (§1) Compounds were tested for their inhibitory effects against replication of HIV-1 (IIIB) in MT-4 cells[1011]. The MT-4 cells were grown and maintained in RPMI 1640 DM medium supplemented with 10% (v/v) heat-inactivated fetal calf serum (FCS), 2 mM-glutamine, 0.1% sodium bicarbonate and 20 μg/ml gentamicin (culture medium). Inhibitory effect of test compounds on HIV-1 replications was monitored by inhibition of virus-induced cytopathic effect in MT-4 cells and was estimated by MTT assay. Briefly, 50 μl of HIV-1 (100-300 CCID50) were added to a flat-bottomed microtiter tray with 50 μl of medium containing various concentrations of compounds. MT-4 cells were added at a final concentration of 6×10^5 cells/ml. After 5 d of incubation at 37°, the number of viable cells were determined by the 3-(4,5-dimethylthiazol-2-yl)-2,5-diphenyl tetrazolium bromide (MTT) method. Cytotoxicity of test compounds against mock-infected MT-4 cells was also assessed by the MTT method. AntiHIV activity and cytotoxicity of standard AZT were also performed by a similar method in MT-4 cells.

[5] = system: HIV-1 (IIIB); test: Inhibition of HIV-1 (IIIB) induced cytopathic effect in MT-4 cells, MTT; type: cell-based; conditions: for EC50: MTT, 5 d, read-out: EC50, concentration achieving 50% protection of MT-4 cells against the cytopathic effect of HIV
[6] = in vitro; conditions: dog
[7] = system: influenza A (H1N1); test: microbe, parasite or virus in culture; type: cell-based; conditions: strain A(H1N1), MDCK cells; for EC50: Influenza A virus, CPE inhibition, neutral red, read-out: EC50, 50% effective (virus-inhibitory) concentration
[8] = system: influenza A and B viruses; test: microbe, parasite or virus in culture; type: cell-based; conditions: MDCK, read-out: concentration inhibiting the replication of influenza A and B viruses
[9] = system: mock-infected MT-4 cells; test: Cytotoxicity against mock-infected MT-4 cells, MTT; type: cell-based
Experimental: as §1

[10] = Human immunodeficiency virus 1, MT4, 120 h

SMILES | EC50 [1] | Selectivity Index (CC50 divided by EC50) [1] | EC50 [2] | EC50 [3] | Selectivity Index (CC50 divided by EC50) [3] | CC50 at 5 d [4] | EC50 [5, 10] | CC50 [6] | EC50 [7] | Selectivity Index (CC50 divided by EC50) [7] | Selectivity Index (CC50 divided by EC50) [2] | EC50 [8] | CC50 at 3 d [6] | CC50 ([9]; mock-infected MT-4 cells, MTT, read-out: CC50, concentration required to reduce the viability of mock-infected MT-4 cells by 50%) | Max Prot [5] | EC50 [5] | cytostatic activity in MT-4 cells (in words) ([9]; MT-4 cells)
O=C(O)c1cn(C2CC2)c2cc(N3CCN(CNc4ccc(S(=O)(=O)Nc5ncccn5)cc4)CC3)c(F)cc2c1=O [CF-SD] | 33 µg/mL (≈ 55.6 µM) | >3 | 41 µg/mL (≈ 69.1 µM) | 32 µg/mL (≈ 53.9 µM) | >3 | 74.1 µM | > 74.1 µM | > 100 µg/mL | 16 µg/mL (≈ 27 µM) | >6.1 | – | – | – | – | – | – | –
CCn1cc(C(=O)O)c(=O)c2cc(F)c(N3CCN(CNc4ccc(S(=O)(=O)Nc5nc(C)cc(C)n5)cc4)CC3)cc21 [NF-SDM] | – | – | – | – | – | 56.3 µM | > 56.3 µM | – | – | – | – | – | – | – | – | – | –
CCn1cc(C(=O)O)c(=O)c2cc(F)c(N3CCN(CNc4ccc(S(N)(=O)=O)cc4)CC3)cc21 [NF-SA] | > 100 µg/mL | – | > 100 µg/mL | 80 µg/mL (≈ 159 µM) | >1.3 | 75.5 µM | > 75.5 µM | > 100 µg/mL | > 100 µg/mL | – | – | – | – | – | – | – | –
NC(=O)c1ncn([C@@H]2O[C@H](CO)[C@@H](O)[C@H]2O)n1 [Ribavirin, ribavirin, reference compound] | 4.3 µg/mL (≈ 17.6 µM) | >23 | 5.9 µg/mL (≈ 24.2 µM) | 5.5 µg/mL (≈ 22.5 µM) | >18 | – | – | > 100 µg/mL | 3.7 µg/mL (≈ 15.2 µM) | >27 | >17 | 3.7 to 5.9 µg/mL (≈ 15.2 to 24.2 µM) | – | – | – | – | –
CCn1cc(C(=O)O)c(=O)c2cc(F)c(N3CCN(CNc4ccc(S(=O)(=O)Nc5ncccn5)cc4)CC3)cc21 [NF-SD] | > 32 µg/mL | – | > 100 µg/mL | > 32 µg/mL | – | 66.8 µM | > 66.8 µM | – | > 100 µg/mL | – | – | – | 32 µg/mL (≈ 55 µM) | – | – | – | –
Cc1cn([C@H]2C[C@H](N=[N+]=[N-])[C@@H](CO)O2)c(=O)[nH]c1=O [AZT, reference compound] | – | – | – | – | – | – | – | – | – | – | – | – | – | 64.5 µM | 106 | 0.0064 µM | –
Cc1cc(C)nc(NS(=O)(=O)c2ccc(NCN3CCN(c4cc5c(cc4F)c(=O)c(C(=O)O)cn5C4CC4)CC3)cc2)n1 [CF-SDM] | > 100 µg/mL | – | 30 µg/mL (≈ 48.3 µM) | 53 µg/mL (≈ 85.3 µM) | >2 | 70.8 µM | > 70.8 µM | > 100 µg/mL | 18 µg/mL (≈ 29 µM) | >5.6 | >3.3 | – | – | – | – | – | –
COc1c(N2CCN(CNc3ccc(S(=O)(=O)Nc4ncccn4)cc3)CC2)c(F)cc2c(=O)c(C(=O)O)cn(C3CC3)c12 [GF-SD] | > 100 µg/mL | – | 52 µg/mL (≈ 83.4 µM) | 97 µg/mL (≈ 156 µM) | >1 | 70.1 µM | > 70.1 µM | > 100 µg/mL | 34 µg/mL (≈ 54.5 µM) | >3 | >1.9 | – | – | – | – | – | –
COc1c(N2CCN(CNc3ccc(S(=O)(=O)Nc4nc(C)cc(C)n4)cc3)CC2)c(F)cc2c(=O)c(C(=O)O)cn(C3CC3)c12 [GF-SDM] | 19 µg/mL (≈ 29.2 µM) | >5 | 38 µg/mL (≈ 58.3 µM) | 11 µg/mL (≈ 16.9 µM) | >9 | 39.4 µM | > 39.4 µM | > 100 µg/mL | 33 µg/mL (≈ 50.6 µM) | >3.1 | >2.6 | – | – | – | – | – | marked cytostatic activity
COc1c(N2CCN(CNc3ccc(S(N)(=O)=O)cc3)CC2)c(F)cc2c(=O)c(C(=O)O)cn(C3CC3)c12 [GF-SA] | 32 µg/mL (≈ 58.7 µM) | >3 | > 100 µg/mL | 36 µg/mL (≈ 66 µM) | >3 | 58.7 µM | > 58.7 µM | > 100 µg/mL | > 100 µg/mL | – | – | – | – | – | – | – | –
